In brackets after ≈: the same amount, converted by molar mass. Bridge positions count the residues as written; N and C are the ends. Square brackets hold non-standard residues; d marks the D form. Peptide text beside a SMILES is read from it. ξ: configuration not given here. Thr(3ξ) = CC(O)[C@H](N)C(=O)O
What was measured:
Type in all cases: functional
Escherichia coli [1] = test: Antibacterial activity against Escherichia coli ATCC 25922 assessed as reduction in bacterial cell viability incubated for 4 hrs by resazurin assay; details: ATCC 25922, 4 h
Klebsiella pneumoniae = test: Antibacterial activity against rifampin and streptomycin resistant Klebsiella pneumoniae VK148 assessed as reduction in bacterial cell viability incubated for 4 hrs by resazurin assay; details: VK148, 4 h
Escherichia coli [2] = test: Antibacterial activity against Escherichia coli ATCC 25922 assessed as reduction in […] at 60 uM incubated for 4 hrs by resazurin assay relative to control; parameters: scale not given: the % may be the effect or the level left

| SMILES | MIC (Escherichia coli [1]) [µM] | MIC (Klebsiella pneumoniae) [µM] | Activity (Escherichia coli [2]) [%] |
| --- | --- | --- | --- |
| CC[C@H](C)[C@@H]1NC(=O)[C@H](C)NC(=O)[C@H](CO)NC(=O)[C@H](CO)NC(=O)[C@H]([C@@H](C)CC)NC(=O)[C@@H]2CSSC[C@@H]3NC(=O)[C@H](C(C)C)NC(=O)[C@H](CCCCN)NC(=O)[C@@H](CO)NC(=O)[C@H](CCCCN)NC(=O)[C@H]4CSSC[C@H](NC(=O)[C@H](CO)NC(=O)[C@H](CCC(=O)O)NC(=O)CNC(=O)[C@H](CSSC[C@H](NC(=O)CNC1=O)C(=O)N[C@@H](CO)C(=O)N4)NC(=O)[C@@H]1CCCN1C(=O)[C@H]([C@@H](C)CC)NC(=O)CNC(=O)[C@H](CC(N)=O)NC(=O)[C@@H](CCCNC(=N)N)NC(=O)[C@H](Cc1ccc(O)cc1)NC3=O)C(=O)N[C@@H](C(C)C)C(=O)N[C@@H](Cc1c[nH]c3ccccc13)C(=O)N[C@@H]([C@@H](C)CC)C(=O)N1CCC[C@H]1C(=O)N2 | 5 (≈ 15.7 µg/mL) | < 12.5 | – |
| CC[C@H](C)[C@@H]1NC(=O)[C@H](CO)NC(=O)[C@H](C)NC(=O)[C@H](CO)NC(=O)[C@H](Cc2ccc(O)cc2)NC(=O)[C@@H]2CSSC[C@@H]3NC(=O)[C@H](C(C)C)NC(=O)[C@H](CCCCN)NC(=O)[C@H](Cc4ccc(O)cc4)NC(=O)[C@H](CCCCN)NC(=O)[C@H](CO)NC(=O)[C@@H]4CSSC[C@H](NC(=O)[C@H](C(C)O)NC(=O)[C@H](CCC(=O)O)NC(=O)CNC(=O)[C@H](CSSC[C@H](NC(=O)CNC1=O)C(=O)N[C@@H](CO)C(=O)N4)NC(=O)[C@H](C)NC(=O)CNC(=O)[C@@H]1CCCN1C(=O)[C@H](CC(N)=O)NC(=O)CNC(=O)[C@H](CC(N)=O)NC(=O)[C@H](CC(C)C)NC(=O)[C@H]([C@@H](C)O)NC3=O)C(=O)N[C@@H]([C@@H](C)CC)C(=O)N[C@@H](Cc1c[nH]c3ccccc13)C(=O)NCC(=O)N[C@@H](CCCCN)C(=O)N2 (stereo partly drawn) (cyclo(ACGE[Thr(3ξ)]CIWGKCYSASIGCSCSKYKVCTLNGNPG); disulfide 2-18, 6-20, 11-26) | – | – | 50 |
